# Measured values taken from patent US20140343017A1, “PYRROLE COMPOUND” (Kabushiki Kaisha Yakult Honsha, priority 2012, published 2014).
# Legend:
# Experiment in all cases: Inhibitory effect on growth of human cancer cells (in vitro), WST-8
# Format in all cases: cell-based
# [1] = tested on: human colorectal cancer HT-29 cells; conditions: Homo sapiens, HT-29, 96 h, 96 hours culture, read-out: IC50 (nM) HT29
# Protocol: (§1) Each pyrrole compound of the present invention was studied for its effects on the growth of human non-small cell lung cancer A549 cells and human colorectal cancer HT-29 cells and HCT116 cells. The cells of each line were suspended in an RPMI1640 medium supplemented with 10% fetal bovine serum and inoculated at a cell density of 1000 cells/50 μL/well to a 96-well plate. After overnight culture, each compound diluted with a medium was added thereto at a concentration of 50 μL/well, and the cells were further cultured for 96 hours. After the completion of culture, WST-8 (Seikagaku Corp.) was added thereto at a concentration of 10 μL/well, and the cells were cultured at 37° C. for approximately 1 hour under 5% CO2 conditions, followed by measurement of absorbance at 450 nm.
# [2] = tested on: human non-small cell lung cancer A549 cells; conditions: Homo sapiens, A549, 96 h, 96 hours culture
# Protocol: as §1
# [3] = tested on: human colorectal cancer HCT116 cells; conditions: Homo sapiens, HCT-116, 96 h, 96 hours culture
# Protocol: as §1
SMILES,IC50 [1] [nM],IC50 [2] [nM],IC50 [3] [nM]
"Cc1[nH]c(-c2nnc(C3CC3)o2)c(C)c1C(=O)c1cccc(CO)c1 [Compound 199, (5-(5-cyclopropyl-1,3,4-oxadiazol-2-yl)-2,4-dimethyl-1H-pyrrol-3-yl)(3-(hydroxymethyl)phenyl)methanone]",9,19.5,10.6
"Cc1c(-c2nnc(C3CC3)o2)[nH]c(C2SCCCS2)c1C(=O)c1cccc(Br)c1 [Compound 200, (3-bromophenyl) (5-(5-cyclopropyl-1,3,4-oxadiazol-2-yl)-2-(1,3-dithian-2-yl)-4-methyl-1H-pyrrol-3-yl)methanone]",209,389,647
"COc1ccc(Br)cc1C(=O)c1c(C)[nH]c(-c2nnc(COC(C)=O)o2)c1C [Compound 202, (5-(4-(5-bromo-2-methoxybenzoyl)-3,5-dimethyl-1H-pyrrol-2-yl)-1,3,4-oxadiazol-2-yl)methyl acetate]",50.5,127,62.4
"Cc1[nH]c(-c2nnc(CO)o2)c(C)c1C(=O)c1cc(Br)ccc1O [Compound 203, (5-bromo-2-hydroxyphenyl)(5-(5-(hydroxymethyl)-1,3,4-oxadiazol-2-yl)-2,4-dimethyl-1H-pyrrol-3-yl)methanone]",171,210,152
"CC(=O)OCCc1nnc(-c2[nH]c(C)c(C(=O)c3cccc(Br)c3)c2C)o1 [Compound 204, 2-(5-(4-(3-bromobenzoyl)-3,5-dimethyl-1H-pyrrol-2-yl)-1,3,4-oxadiazol-2-yl)ethyl acetate]",5.9,31.1,8.9
"Cc1[nH]c(-c2nnc(CCO)o2)c(C)c1C(=O)c1cccc(Br)c1 [Compound 205, (3-bromophenyl)(5-(5-(2-hydroxyethyl)-1,3,4-oxadiazol-2-yl)-2,4-dimethyl-1H-pyrrol-3-yl)methanone]",20.3,64.9,37
"C=Cc1nnc(-c2[nH]c(C)c(C(=O)c3cccc(Br)c3)c2C)o1 [Compound 206, (3-bromophenyl)(2,4-dimethyl-5-(5-vinyl-1,3,4-oxadiazol-2-yl)-1H-pyrrol-3-yl)methanone]",8.8,31.5,9.5
"CC(=O)OCc1nnc(-c2[nH]c(C)c(C(=O)c3cccc(Br)c3)c2C)o1 [Compound 210, (5-(4-(3-bromobenzoyl)-3,5-dimethyl-1H-pyrrol-2-yl)-1,3,4-oxadiazol-2-yl)methyl acetate]",39.3,205,42.9
"Cc1[nH]c(-c2nnc(CO)o2)c(C)c1C(=O)c1cccc(Br)c1 [Compound 211, (3-bromophenyl) (5-(5-(hydroxymethyl)-1,3,4-oxadiazol-2-yl)-2,4-dimethyl-1H-pyrrol-3-yl)methanone]",44.1,183,49.1
"Cc1[nH]c(-c2nnc(CN)o2)c(C)c1C(=O)c1cccc(Br)c1 [Compound 214, (5-(5-(aminomethyl)-1,3,4-oxadiazol-2-yl)-2,4-dimethyl-1H-pyrrol-3-yl)(3-bromophenyl)methanone]",230,999,286
"CCc1nnc(-c2c(C)c(C(=O)c3cccc(Br)c3)c(C)n2C)o1 [Compound 223, (3-bromophenyl) (5-(5-ethyl-1,3,4-oxadiazol-2-yl)-1,2,4-trimethyl-1H-pyrrol-3-yl)methanone]",28.1,231,46.9
"CCc1nnc(-c2c(C)c(C(=O)c3cccc(Br)c3)c(C)n2C(C)=O)o1 [Compound 224, 1-(3-(3-bromobenzoyl)-5-(5-ethyl-1,3,4-oxadiazol-2-yl)-2,4-dimethyl-1H-pyrrol-1-yl)ethanone]",1.3,1.8,1.7
"CCc1nnc(-c2c(C)c(C(=O)c3cccc(Br)c3)c(C)n2S(C)(=O)=O)o1 [Compound 225, (3-bromophenyl)(5-(5-ethyl-1,3,4-oxadiazol-2-yl)-2,4-dimethyl-1-(methylsulfonyl)-1H-pyrrol-3-yl)methanone]",6.6,9.7,9.2
"CCc1nnc(-c2c(C)c(C(=O)c3cccc(Br)c3)c(C)n2C(=O)COC(C)=O)o1 [Compound 226, 2-(3-(3-bromobenzoyl)-5-(5-ethyl-1,3,4-oxadiazol-2-yl)-2,4-dimethyl-1H-pyrrol-1-yl)-2-oxoethyl acetate]",0.3,0.7,0.4
"CCc1nnc(-c2c(C)c(C(=O)c3cccc(Br)c3)c(C)n2S(=O)(=O)C2CC2)o1 [Compound 227, (3-bromophenyl) (1-(cyclopropylsulfonyl)-5-(5-ethyl-1,3,4-oxadiazol-2-yl)-2,4-dimethyl-1H-pyrrol-3-yl)methanone]",290,555,447
"CCc1nnc(-c2c(C)c(C(=O)c3cccc(Br)c3)c(C)n2CCOC(C)=O)o1 [Compound 235, 2-(3-(3-bromobenzoyl)-2,4-dimethyl-5-(5-ethyl-1,3,4-oxadiazol-2-yl)-1H-pyrrol-1-yl)ethyl acetate]",172,738,239
"CCc1nnc(-c2c(C)c(C(=O)c3cccc(Br)c3)c(C)n2CCO)o1 [Compound 236, (3-bromophenyl) (1-(2-hydroxyethyl)-2,4-dimethyl-5-(5-ethyl-1,3,4-oxadiazol-2-yl)-1H-pyrrol-3-yl)methanone]",168,469,231
"CCc1nnc(-c2c(C)c(C(=O)c3cccc(Br)c3)c(C)n2C(=O)c2ccccc2)o1 [Compound 237, (1-benzoyl-5-(5-ethyl-1,3,4-oxadiazol-2-yl)-2,4-dimethyl-1H-pyrrol-3-yl) (3-bromophenyl)methanone]",0.3,1.9,0.6
"Cc1[nH]c(-c2nnc(C3CC3)o2)c(C)c1C(=O)c1cc(Br)ccc1O [Compound 241, (5-bromo-2-hydroxyphenyl)(5-(5-cyclopropyl-1,3,4-oxadiazol-2-yl)-2,4-dimethyl-1H-pyrrol-3-yl)methanone]",2.6,2.1,1.4
"CCc1nnc(-c2[nH]c(C)c(C(=O)c3ccc(OCCN)c(Br)c3)c2C)o1 [Compound 251, (4-(2-aminoethoxy)-3-bromophenyl)(5-(5-ethyl-1,3,4-oxadiazol-2-yl)-2,4-dimethyl-1H-pyrrol-3-yl)methanone]",102,191,55.3
"Cc1[nH]c(-c2nnc(C3CC3)o2)c(C)c1C(=O)c1cccc(OCCN)c1 [Compound 253, (3-(2-aminoethoxy)phenyl)(5-(5-cyclopropyl-1,3,4-oxadiazol-2-yl)-2,4-dimethyl-1H-pyrrol-3-yl)methanone]",146,351,45.2
"Cc1[nH]c(-c2nnc(C3CC3)o2)c(C)c1C(=O)c1ccc(O)c(Br)c1 [Compound 254, (3-bromo-4-hydroxyphenyl)(5-(5-cyclopropyl-1,3,4-oxadiazol-2-yl)-2,4-dimethyl-1H-pyrrol-3-yl)methanone]",33.2,55.1,44.5
"Cc1[nH]c(-c2nnc(C3CC3)o2)c(C)c1C(=O)c1ccc(OCCN)c(Br)c1 [Compound 256, (4-(2-aminoethoxy)-3-bromophenyl)(5-(5-cyclopropyl-1,3,4-oxadiazol-2-yl)-2,4-dimethyl-1H-pyrrol-3-yl)methanone]",36.2,95.9,43.2
"Cc1[nH]c(-c2nnc(C3CC3)o2)c(C)c1C(=O)c1ccc(OCCN(C)C)c(Br)c1 [Compound 257, (3-bromo-4-(2-(dimethylamino)ethoxy)phenyl) (5-(5-cyclopropyl-1,3,4-oxadiazol-2-yl)-2,4-dimethyl-1H-pyrrol-3-yl)methanone]",384,865,865
"COc1ccc(Br)cc1C(=O)c1c(C=O)[nH]c(-c2nnc(C3CC3)o2)c1C [Compound 258, 3-(5-bromo-2-methoxybenzoyl)-5-(5-cyclopropyl-1,3,4-oxadiazol-2-yl)-4-methyl-1H-pyrrole-2-carboaldehyde]",30.9,50.5,45.4
"COc1ccc(Br)cc1C(=O)c1c(CO)[nH]c(-c2nnc(C3CC3)o2)c1C [Compound 259, (5-bromo-2-methoxyphenyl)(5-(5-cyclopropyl-1,3,4-oxadiazol-2-yl)-2-(hydroxymethyl)-4-methyl-1H-pyrrol-3-yl)methanone]",37.2,69.5,39.2
"C=Cc1[nH]c(-c2nnc(C3CC3)o2)c(C)c1C(=O)c1cccc(Br)c1 [Compound 260, (3-bromophenyl) (5-(5-cyclopropyl-1,3,4-oxadiazol-2-yl)-4-methyl-2-vinyl-1H-pyrrol-3-yl)methanone]",0.3,0.4,0.3
"Cc1c(-c2nnc(C3CC3)o2)[nH]c(C=O)c1C(=O)c1cccc(Br)c1 [Compound 261, 3-(3-bromobenzoyl)-5-(5-cyclopropyl-1,3,4-oxadiazol-2-yl)-4-methyl-1H-pyrrole-2-carboaldehyde]",9.4,12.9,88.9
"COc1ccc(C(=O)c2c(C3SCCCS3)[nH]c(-c3nnc(C4CC4)o3)c2C)cc1Br [Compound 262, (3-bromo-4-methoxyphenyl)(5-(5-cyclopropyl-1,3,4-oxadiazol-2-yl)-2-(1,3-dithian-2-yl)-4-methyl-1H-pyrrol-3-yl)methanone]",845,905,902
